Results: patent US8470888B2, “Botryllamides and method of inhibiting PGP in a mammal afflicted with cancer” (The United States of America, as represented by the …, priority 2008, dated 2013)

Legend:
Format in all cases: cell-based
[1] = molecular target: ABCG2 (Homo sapiens (Human), UniProt Q9UNQ0); assay: Pheophorbide a accumulation assay for ABCG2 inhibitors in NCI-H460/MX20 cells; details: for IC50: 1 μM pheophorbide a, 18 h; for Pheophorbide a max activity, % of FTC response: normalized to 10 μM FTC
Protocol: Accumulation of pheophorbide a, a fluorescent ABCG2 substrate (Jonker et al., Proc. Natl. Acad. Sci. USA, 99: 15649-54 (2002) and Robey et al., Cancer Res., 64: 1242-6 (2004)), formed the basis of the assay for inhibitors of ABCG2 activity (Henrich et al., J. Biomol. Screen, 11: 176-83 (2006)). Briefly, NCI-H460/MX20 cells are transferred to black wall, clear bottom 384-well polylysine-coated assay plates (Corning, Corning, N.Y.) and allowed to attach for several hours. Pheophorbide a (1 μM final concentration) is added immediately followed by compounds or vehicle (DMSO/PBS) control and incubated an additional 18 h. After removal of medium and washing with PBS containing Ca^2+ and Mg^2+, fluorescence intensity is read on a Tecan Safire fluorescence plate reader in bottom read mode, 395 nm excitation, and 670 nm emission. Each plate has control wells containing 10 μM (final concentration) FTC. Data are normalized to FTC and reported as % of FTC fluorescence.

[2] = molecular target: MRP1 (Homo sapiens (Human), UniProt P33527); assay: Flow assay, calcein efflux in transfected HEK293 cells expressing MRP1; details: 10 μM compound; 200 nM calcein AM
[3] = molecular target: Pgp (Homo sapiens (Human), UniProt P08183); assay: Flow assay, rhodamine 123 efflux in transfected HEK293 cells expressing Pgp; details: 10 μM compound; 0.5 μg/ml rhodamine 123
Pgp, sequence (P08183 whole entry): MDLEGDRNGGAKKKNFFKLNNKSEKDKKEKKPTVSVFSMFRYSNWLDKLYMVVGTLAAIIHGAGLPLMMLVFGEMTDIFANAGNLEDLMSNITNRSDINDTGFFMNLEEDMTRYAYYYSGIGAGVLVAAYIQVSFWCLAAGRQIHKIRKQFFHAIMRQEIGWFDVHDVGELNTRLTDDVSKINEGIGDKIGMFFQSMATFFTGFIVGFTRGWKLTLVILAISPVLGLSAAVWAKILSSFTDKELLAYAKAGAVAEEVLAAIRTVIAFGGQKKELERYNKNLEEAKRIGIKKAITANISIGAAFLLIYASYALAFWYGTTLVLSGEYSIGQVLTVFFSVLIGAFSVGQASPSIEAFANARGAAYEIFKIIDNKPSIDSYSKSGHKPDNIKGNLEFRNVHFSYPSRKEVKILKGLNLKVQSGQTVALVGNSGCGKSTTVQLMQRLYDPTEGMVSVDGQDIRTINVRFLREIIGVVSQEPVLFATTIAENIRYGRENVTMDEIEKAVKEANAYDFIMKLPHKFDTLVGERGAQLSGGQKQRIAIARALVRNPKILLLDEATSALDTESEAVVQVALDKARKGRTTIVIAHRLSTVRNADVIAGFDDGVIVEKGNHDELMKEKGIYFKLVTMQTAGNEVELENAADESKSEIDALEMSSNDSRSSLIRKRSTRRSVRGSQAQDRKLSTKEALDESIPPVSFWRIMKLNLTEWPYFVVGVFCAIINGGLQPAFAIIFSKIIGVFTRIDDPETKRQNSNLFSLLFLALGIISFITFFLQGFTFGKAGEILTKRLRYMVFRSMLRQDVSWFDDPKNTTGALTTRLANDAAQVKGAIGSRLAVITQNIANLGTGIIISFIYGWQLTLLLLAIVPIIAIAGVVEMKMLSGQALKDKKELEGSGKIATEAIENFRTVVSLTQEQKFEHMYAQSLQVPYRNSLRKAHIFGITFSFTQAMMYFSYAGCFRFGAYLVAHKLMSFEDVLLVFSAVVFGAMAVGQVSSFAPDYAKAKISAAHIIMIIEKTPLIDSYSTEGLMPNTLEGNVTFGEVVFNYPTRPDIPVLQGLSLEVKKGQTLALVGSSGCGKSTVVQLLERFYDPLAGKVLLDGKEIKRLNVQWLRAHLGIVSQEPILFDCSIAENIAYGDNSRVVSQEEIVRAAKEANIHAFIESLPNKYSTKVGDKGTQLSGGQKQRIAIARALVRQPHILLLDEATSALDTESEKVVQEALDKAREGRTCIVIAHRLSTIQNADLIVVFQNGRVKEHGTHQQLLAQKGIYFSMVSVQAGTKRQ

MRP1, sequence (P33527 whole entry): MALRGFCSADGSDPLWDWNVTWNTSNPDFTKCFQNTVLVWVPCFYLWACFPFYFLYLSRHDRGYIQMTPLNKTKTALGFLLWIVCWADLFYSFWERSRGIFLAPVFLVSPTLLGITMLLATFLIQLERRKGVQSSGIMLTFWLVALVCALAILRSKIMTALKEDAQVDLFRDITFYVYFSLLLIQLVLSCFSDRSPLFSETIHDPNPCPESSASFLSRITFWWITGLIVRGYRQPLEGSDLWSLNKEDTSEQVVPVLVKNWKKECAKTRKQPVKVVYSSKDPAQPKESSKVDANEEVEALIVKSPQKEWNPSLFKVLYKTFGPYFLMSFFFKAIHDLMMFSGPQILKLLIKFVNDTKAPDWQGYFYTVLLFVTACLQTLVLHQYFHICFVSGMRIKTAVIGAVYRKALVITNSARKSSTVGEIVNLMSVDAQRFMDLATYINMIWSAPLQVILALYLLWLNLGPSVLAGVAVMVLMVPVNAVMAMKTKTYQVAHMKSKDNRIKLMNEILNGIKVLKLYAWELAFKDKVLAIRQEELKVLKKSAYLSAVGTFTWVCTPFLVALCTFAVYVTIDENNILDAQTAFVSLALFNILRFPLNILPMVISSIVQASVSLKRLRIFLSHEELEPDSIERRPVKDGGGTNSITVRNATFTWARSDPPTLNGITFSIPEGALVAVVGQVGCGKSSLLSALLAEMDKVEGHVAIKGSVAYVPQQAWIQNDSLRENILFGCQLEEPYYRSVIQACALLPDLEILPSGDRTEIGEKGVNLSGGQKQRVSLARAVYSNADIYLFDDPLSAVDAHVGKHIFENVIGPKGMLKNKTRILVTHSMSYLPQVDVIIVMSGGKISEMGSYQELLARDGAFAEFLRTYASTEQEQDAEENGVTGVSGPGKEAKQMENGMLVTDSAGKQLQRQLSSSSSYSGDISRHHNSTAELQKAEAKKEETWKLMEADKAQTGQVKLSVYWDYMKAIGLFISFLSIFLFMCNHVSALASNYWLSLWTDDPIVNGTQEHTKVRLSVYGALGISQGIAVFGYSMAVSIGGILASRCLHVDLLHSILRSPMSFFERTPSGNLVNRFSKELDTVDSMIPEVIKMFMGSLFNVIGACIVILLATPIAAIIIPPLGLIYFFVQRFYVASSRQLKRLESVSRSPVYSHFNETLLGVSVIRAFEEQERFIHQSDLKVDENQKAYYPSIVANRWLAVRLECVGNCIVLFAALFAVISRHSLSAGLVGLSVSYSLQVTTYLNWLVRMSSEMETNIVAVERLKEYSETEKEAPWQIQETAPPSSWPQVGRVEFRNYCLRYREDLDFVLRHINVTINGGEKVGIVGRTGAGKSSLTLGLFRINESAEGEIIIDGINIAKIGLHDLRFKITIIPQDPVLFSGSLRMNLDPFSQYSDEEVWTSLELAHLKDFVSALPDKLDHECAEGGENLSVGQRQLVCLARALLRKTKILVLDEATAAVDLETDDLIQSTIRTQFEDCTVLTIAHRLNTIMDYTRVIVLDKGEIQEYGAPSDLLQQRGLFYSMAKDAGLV
ABCG2, sequence (Q9UNQ0 whole entry): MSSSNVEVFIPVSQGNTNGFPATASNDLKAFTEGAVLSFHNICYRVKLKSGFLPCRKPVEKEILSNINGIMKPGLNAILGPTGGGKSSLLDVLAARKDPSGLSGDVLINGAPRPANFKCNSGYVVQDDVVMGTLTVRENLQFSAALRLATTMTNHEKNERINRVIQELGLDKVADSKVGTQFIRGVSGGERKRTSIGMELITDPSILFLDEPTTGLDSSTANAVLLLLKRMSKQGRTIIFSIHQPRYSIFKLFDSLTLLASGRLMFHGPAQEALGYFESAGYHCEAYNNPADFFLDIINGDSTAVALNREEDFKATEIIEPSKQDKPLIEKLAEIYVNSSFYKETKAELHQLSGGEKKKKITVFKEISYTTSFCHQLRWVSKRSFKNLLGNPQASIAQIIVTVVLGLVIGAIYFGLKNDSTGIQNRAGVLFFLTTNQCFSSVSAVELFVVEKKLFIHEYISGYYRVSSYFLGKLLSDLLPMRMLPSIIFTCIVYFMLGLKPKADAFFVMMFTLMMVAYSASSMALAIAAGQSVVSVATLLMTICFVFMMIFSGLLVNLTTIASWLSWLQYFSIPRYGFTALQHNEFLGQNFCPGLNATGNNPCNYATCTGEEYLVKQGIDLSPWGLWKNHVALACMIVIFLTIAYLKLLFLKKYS

Row | Molecule | IC50 [1] [µM] | Pheophorbide a max activity, % of FTC response ([1]; 80 μM compound) [%] | Flow-MRP1, Fold Increase (MRP1 inhibition, calcein efflux: treated/control ratio) [2] [fold] | Flow-Pgp, Fold Increase (Pgp inhibition, rhodamine efflux: treated/control ratio) [3] [fold] | Pheophorbide a max activity, % of FTC response ([1]; 40 μM compound)
1 | CO/C(=C\c1ccc(O)cc1)C(=O)N/C=C/c1cc(Br)c(OC)c(Br)c1 [Botryllamide A, botryllamide A] | 33 | 89.7 | 4.5 | 17.63 | 
2 | CO/C(=C\c1ccc(O)cc1)C(=O)N/C=C/c1ccc(OC)c(Br)c1 [Botryllamide D, botryllamide D] | 16.4 | 63.5 | 2.39 | 1.49 | 
3 | CO/C(=C\c1ccc(O)cc1)C(=O)N/C=C/c1ccc(OC)cc1 [Botryllamide E, botryllamide E] | 23.3 | 68.8 | 1.96 | 0.76 | 
4 | CO/C(=C\c1ccc(O)cc1)C(=O)N/C=C/c1ccc(O)cc1 [Botryllamide F, botryllamide F] | 16.7 | 81.0 | 3.33 | 0.59 | 
5 | CO/C(=C\c1ccc(O)cc1)C(=O)N/C=C/c1cc(Br)c(O)c(Br)c1 [Botryllamide G, botryllamide G] | 6.9 |  | 2.1 | 0.68 | 123.7 (40 μM) %
6 | CO/C(=C\c1ccc(O)cc1)C(=O)N/C=C/c1ccc(OC)cc1 [Botryllamide I, botryllamide I] | 41.4 | 71.3 | 3.14 | 0.8 | 
7 | botryllamide B | 11.2 |  | 3.26 | 1.95 | 84.3 (40 μM) %
8 | botryllamide J | 26.9 | 70.5 | 2.54 | 0.58 | 
